{
  "source": "DBAASP",
  "experiment_in_all_cases": "≥ marks a high value that may be exact or a test limit, other limits are often not marked, values filed in µg/mL are converted to µM",
  "key": {"Staphylococcus aureus": {"tested_on": "Staphylococcus aureus"}, "[1]": {"tested_on": "Bifidobacterium longum subsp. infantis"}, "Escherichia coli": {"tested_on": "Escherichia coli"}, "[2]": {"tested_on": "Pseudomonas aeruginosa ATCC 27853"}, "[3]": {"tested_on": "Salmonella enterica subsp. enterica serovar Enteritidis"}, "[4]": {"tested_on": "Staphylococcus aureus ATCC 43300"}, "Salmonella sp.": {"tested_on": "Salmonella sp."}, "[5]": {"tested_on": "Staphylococcus aureus ATCC 29213"}, "Yersinia enterocolitica": {"tested_on": "Yersinia enterocolitica"}, "[6]": {"tested_on": "Escherichia coli ATCC 25922"}, "Fusarium graminearum": {"tested_on": "Fusarium graminearum"}, "[7]": {"tested_on": "Pseudomonas aeruginosa Z61"}, "[8]": {"tested_on": "Pseudomonas aeruginosa H744"}, "[9]": {"tested_on": "Pseudomonas aeruginosa K799"}, "[10]": {"tested_on": "Pseudomonas aeruginosa H374"}, "Escherichia coli UB1005": {"tested_on": "Escherichia coli UB1005"}, "[11]": {"tested_on": "Pseudomonas aeruginosa H547"}, "[12]": {"tested_on": "Salmonella enterica subsp. enterica serovar Typhimurium ATCC 14028s"}, "[13]": {"tested_on": "Acinetobacter baumannii 97830"}, "Escherichia coli 780": {"tested_on": "Escherichia coli 780"}, "[14]": {"tested_on": "Acinetobacter baumannii ATCC 19606"}, "Escherichia coli 804": {"tested_on": "Escherichia coli 804"}, "[15]": {"tested_on": "Staphylococcus epidermidis ATCC 12228"}, "[16]": {"tested_on": "Acinetobacter baumannii 9931"}, "Staphylococcus aureus 75": {"tested_on": "Staphylococcus aureus 75"}, "[17]": {"tested_on": "Staphylococcus aureus 113"}, "[18]": {"tested_on": "Bacillus subtilis ATCC 23857"}, "[19]": {"tested_on": "Pseudomonas aeruginosa 73"}, "[20]": {"tested_on": "Pseudomonas aeruginosa 50"}, "[21]": {"tested_on": "Klebsiella pneumoniae ATCC 700603"}, "[22]": {"tested_on": "Pseudomonas aeruginosa ATCC 9027"}, "[23]": {"tested_on": "Pseudomonas aeruginosa M917"}, "[24]": {"tested_on": "Pseudomonas aeruginosa PAO1"}, "[25]": {"tested_on": "Pseudomonas aeruginosa M1426"}, "Candida albicans": {"tested_on": "Candida albicans"}, "[26]": {"tested_on": "Stenotrophomonas maltophilia"}, "[27]": {"tested_on": "Pseudomonas aeruginosa M1251"}, "[28]": {"tested_on": "Achromobacter xylosoxidans"}, "Ralstonia pickettii": {"tested_on": "Ralstonia pickettii"}, "[29]": {"tested_on": "Pseudomonas aeruginosa M76"}, "[30]": {"tested_on": "Salmonella enterica serovar Typhimurium"}, "[31]": {"tested_on": "Pseudomonas aeruginosa R70"}, "Pseudomonas fluorescens": {"tested_on": "Pseudomonas fluorescens"}, "[32]": {"tested_on": "Burkholderia cepacia ATCC 25416"}},
  "data": [
    {"smiles": "CC(C)C[C@H](NC(=O)[C@H](CC(N)=O)NC(=O)[C@@H]1CCCN1C(=O)[C@@H](N)CCCN=C(N)N)C(=O)N[C@@H](Cc1cnc[nH]1)C(=O)N1CCC[C@H]1C(=O)N[C@@H](CO)C(=O)O", "note": "[RPNLHPS]", "values": [
      {"measurement": "MIC", "setting": "Staphylococcus aureus", "result": 3660, "unit": "µM"},
      {"measurement": "MIC", "setting": "[1]", "result": "≥ 3660", "unit": "µM"},
      {"measurement": "MIC", "setting": "Escherichia coli", "result": 3660, "unit": "µM"}
    ]},
    {"smiles": "CC[C@H](C)[C@H](NC(=O)[C@H](CCCCN)NC(=O)[C@@H](NC(=O)[C@H](Cc1c[nH]c2ccccc12)NC(=O)[C@H](Cc1ccccc1)NC(=O)[C@H](CCC(N)=O)NC(=O)[C@H](CC(N)=O)NC(=O)[C@H](CCCN=C(N)N)NC(=O)[C@H](CCCN=C(N)N)NC(=O)[C@H](CCSC)NC(=O)[C@H](CCCCN)NC(=O)[C@H](Cc1c[nH]c2ccccc12)NC(=O)[C@H](CCCCN)NC(=O)[C@@H](N)CCCCN)[C@@H](C)CC)C(=O)N[C@@H](CCC(N)=O)C(=O)N[C@@H](CCCN=C(N)N)C(N)=O", "note": "[KKWKMRRNQFWIKIQR]", "values": [
      {"measurement": "MIC", "setting": "Escherichia coli", "result": 25, "unit": "µM"},
      {"measurement": "MIC", "setting": "[2]", "result": "> 50", "unit": "µM"},
      {"measurement": "MIC", "setting": "[3]", "result": 25, "unit": "µM"},
      {"measurement": "MIC", "setting": "[4]", "result": "> 50", "unit": "µM"},
      {"measurement": "MIC", "setting": "Salmonella sp.", "result": 25, "unit": "µM"},
      {"measurement": "MIC", "setting": "[5]", "result": "> 50", "unit": "µM"},
      {"measurement": "MIC", "setting": "Yersinia enterocolitica", "result": "≥ 50", "unit": "µM"},
      {"measurement": "MIC", "setting": "[6]", "result": "> 50", "unit": "µM"}
    ]},
    {"smiles": "CSCC[C@H](NC(=O)[C@H](Cc1cnc[nH]1)NC(=O)[C@H](CCCCN)NC(=O)CNC(=O)[C@H](CC(N)=O)NC(=O)[C@H](CCCN=C(N)N)NC(=O)[C@@H](NC(=O)[C@H](Cc1cnc[nH]1)NC(=O)[C@H](CS)NC(=O)[C@H](C)NC(=O)CNC(=O)[C@H](Cc1cnc[nH]1)NC(=O)[C@@H](NC(=O)[C@H](C)NC(=O)CNC(=O)[C@H](CCC(=O)O)NC(=O)[C@@H](N)Cc1c[nH]c2ccccc12)C(C)C)C(C)C)C(=O)N[C@@H](CS)C(=O)O", "note": "[WEGAVHGACHVRNGKHMC]", "values": [
      {"measurement": "MIC", "setting": "Fusarium graminearum", "result": 20, "unit": "µM"}
    ]},
    {"smiles": "CC[C@H](C)[C@H](NC(=O)[C@H](Cc1ccccc1)NC(=O)[C@H](CO)NC(=O)[C@H](CCCCN)NC(=O)[C@H](Cc1ccccc1)NC(=O)[C@@H](NC(=O)[C@H](CCCCN)NC(=O)[C@@H](N)Cc1c[nH]c2ccccc12)C(C)C)C(=O)N[C@@H](CCCCN)C(=O)N[C@@H](CCCCN)C(=O)N[C@@H](C)C(=O)N[C@@H](CO)C(=O)N[C@@H](CO)C(=O)N[C@@H](Cc1ccccc1)C(=O)N[C@@H](C)C(=O)N[C@@H](CCC(N)=O)C(=O)N[C@@H](CO)C(=O)N[C@H](C(=O)N[C@@H](CC(C)C)C(=O)N[C@@H](CC(=O)O)C(=O)O)C(C)C", "note": "[WKVFKSFIKKASSFAQSVLD]", "values": [
      {"measurement": "MIC", "setting": "[7]", "result": 27.6, "unit": "µM"},
      {"measurement": "MIC", "setting": "[8]", "result": 27.6, "unit": "µM"},
      {"measurement": "MIC", "setting": "[9]", "result": 27.6, "unit": "µM"},
      {"measurement": "MIC", "setting": "[10]", "result": 27.6, "unit": "µM"},
      {"measurement": "MIC", "setting": "Escherichia coli UB1005", "result": 4.75, "unit": "µM"},
      {"measurement": "MIC", "setting": "[11]", "result": 27.6, "unit": "µM"},
      {"measurement": "MIC", "setting": "[12]", "result": 27.6, "unit": "µM"}
    ]},
    {"smiles": "CC(C)C[C@H](NC(=O)[C@H](Cc1c[nH]c2ccccc12)NC(=O)[C@H](CCCN=C(N)N)NC(=O)[C@H](Cc1c[nH]c2ccccc12)NC(=O)[C@H](Cc1c[nH]c2ccccc12)NC(=O)[C@H](Cc1c[nH]c2ccccc12)NC(=O)[C@H](CCCN=C(N)N)NC(=O)[C@H](Cc1c[nH]c2ccccc12)NC(=O)[C@@H](N)CC(C)C)C(N)=O", "note": "[LWRWWWRWL]", "values": [
      {"measurement": "MIC", "setting": "[13]", "result": 8, "unit": "µM"},
      {"measurement": "MIC", "setting": "Escherichia coli 780", "result": 16, "unit": "µM"},
      {"measurement": "MIC", "setting": "[14]", "result": 16, "unit": "µM"},
      {"measurement": "MIC", "setting": "Escherichia coli 804", "result": "≥ 32", "unit": "µM"},
      {"measurement": "MIC", "setting": "[15]", "result": 4, "unit": "µM"},
      {"measurement": "MIC", "setting": "[2]", "result": 128, "unit": "µM"},
      {"measurement": "MIC", "setting": "[16]", "result": 16, "unit": "µM"},
      {"measurement": "MIC", "setting": "Staphylococcus aureus 75", "result": 4, "unit": "µM"},
      {"measurement": "MIC", "setting": "[17]", "result": 4, "unit": "µM"},
      {"measurement": "MIC", "setting": "[18]", "result": 4, "unit": "µM"},
      {"measurement": "MIC", "setting": "[19]", "result": "≥ 64", "unit": "µM"},
      {"measurement": "MIC", "setting": "[5]", "result": 4, "unit": "µM"},
      {"measurement": "MIC", "setting": "[20]", "result": "≥ 32", "unit": "µM"},
      {"measurement": "MIC", "setting": "[21]", "result": 8, "unit": "µM"},
      {"measurement": "MIC", "setting": "[22]", "result": 32, "unit": "µM"}
    ]},
    {"smiles": "CC(C)C[C@H](NC(=O)[C@H](C)NC(=O)[C@H](CCCCN)NC(=O)[C@H](CCCCN)NC(=O)[C@H](C)NC(=O)[C@H](CC(C)C)NC(=O)[C@H](CCCCN)NC(=O)[C@H](CCCCN)NC(=O)[C@H](CC(C)C)NC(=O)[C@H](CCCCN)NC(=O)[C@H](CCCCN)NC(=O)[C@H](CC(C)C)NC(=O)[C@H](CC(C)C)NC(=O)[C@H](CCCCN)NC(=O)[C@H](CCCCN)NC(=O)[C@H](CC(C)C)NC(=O)[C@H](C)NC(=O)[C@H](CCCCN)NC(=O)[C@H](CC(C)C)NC(=O)[C@H](C)NC(=O)[C@H](CC(C)C)NC(=O)[C@H](C)NC(=O)[C@@H](N)Cc1ccccc1)C(N)=O", "note": "[FALALKALKKLLKKLKKLAKKAL]", "values": [
      {"measurement": "MIC", "setting": "[23]", "result": "≥ 49.6", "unit": "µM"},
      {"measurement": "MIC", "setting": "[24]", "result": 3.1, "unit": "µM"},
      {"measurement": "MIC", "setting": "Staphylococcus aureus", "result": 3.1, "unit": "µM"},
      {"measurement": "MIC", "setting": "[25]", "result": 6.2, "unit": "µM"},
      {"measurement": "MIC", "setting": "Candida albicans", "result": 24.8, "unit": "µM"},
      {"measurement": "MIC", "setting": "[26]", "result": 1.55, "unit": "µM"},
      {"measurement": "MIC", "setting": "Escherichia coli UB1005", "result": 1.55, "unit": "µM"},
      {"measurement": "MIC", "setting": "[27]", "result": 6.2, "unit": "µM"},
      {"measurement": "MIC", "setting": "[28]", "result": 12.4, "unit": "µM"},
      {"measurement": "MIC", "setting": "Ralstonia pickettii", "result": 1.55, "unit": "µM"},
      {"measurement": "MIC", "setting": "[29]", "result": 12.4, "unit": "µM"},
      {"measurement": "MIC", "setting": "[30]", "result": 3.1, "unit": "µM"},
      {"measurement": "MIC", "setting": "[31]", "result": 6.2, "unit": "µM"},
      {"measurement": "MIC", "setting": "Pseudomonas fluorescens", "result": 3.1, "unit": "µM"}
    ]},
    {"smiles": "CC[C@H](C)[C@H](NC(=O)CNC(=O)[C@@H](NC(=O)[C@H](CCCCN)NC(=O)[C@H](CCCCN)NC(=O)[C@H](Cc1ccccc1)NC(=O)[C@H](CCCCN)NC(=O)[C@H](Cc1c[nH]c2ccccc12)NC(=O)[C@@H](N)CCCCN)[C@@H](C)CC)C(=O)NCC(=O)N[C@@H](C)C(=O)N[C@H](C(=O)N[C@@H](CC(C)C)C(=O)N[C@@H](CCCCN)C(=O)N[C@H](C(=O)N[C@@H](CC(C)C)C(=O)N[C@H](C(=O)N[C@H](C(=O)NCC(=O)N[C@@H](CC(C)C)C(=O)N1CCC[C@H]1C(=O)N[C@@H](C)C(=O)N[C@@H](CC(C)C)C(=O)N[C@@H](CCCCN)C(=O)N[C@@H](CC(C)C)C(=O)N[C@H](C(=O)N[C@@H](CC(C)C)C(=O)N[C@@H](CCCCN)C(=O)O)[C@@H](C)O)[C@@H](C)O)[C@@H](C)O)C(C)C)C(C)C", "note": "[KWKFKKIGIGAVLKVLTTGLPALKLTLK]", "values": [
      {"measurement": "MIC", "setting": "[7]", "result": 1.63, "unit": "µM"},
      {"measurement": "MIC", "setting": "[8]", "result": 0.326, "unit": "µM"},
      {"measurement": "MIC", "setting": "[9]", "result": 1.96, "unit": "µM"},
      {"measurement": "MIC", "setting": "[32]", "result": 20.9, "unit": "µM"},
      {"measurement": "MIC", "setting": "Escherichia coli UB1005", "result": 0.652, "unit": "µM"},
      {"measurement": "MIC", "setting": "[11]", "result": 0.652, "unit": "µM"},
      {"measurement": "MIC", "setting": "[12]", "result": 1.3, "unit": "µM"}
    ]}
  ]
}
